Laboratory results published in US11464749B2, “Bismuth-thiol compositions and methods of use” (Microbion Corporation, priority 2018, dated 2022).

Experiments:
Test in all cases: Broth microdilution antifungal susceptibility (Example 13)
Format in all cases: cell-based
Candida albicans = settings: 24 hr
A. flavus = settings: comparators, read time not given
Candida krusei = tested on: Candida krusei
Candida glabrata = tested on: Candida glabrata
A. niger = A. niger ATCC 29508; comparators, read time not given
A. terreus = A. terreus MMX 8229; comparators, read time not given
A. fumigatus = settings: comparators, read time not given
Candida auris = tested on: Candida auris

## C[C@@H]1[C@H](O)[C@@H](C)/C=C/C=C/C=C/C=C/C=C/C=C/C=C/[C@H](O[C@@H]2O[C@H](C)[C@@H](O)[C@H](N)[C@@H]2O)C[C@@H]2O[C@](O)(C[C@@H](O)C[C@@H](O)[C@H](O)CC[C@@H](O)C[C@@H](O)CC(=O)O[C@H]1C)C[C@H](O)[C@H]2C(=O)O [AMP B]
Candida albicans; isolate ATCC 90028 (Susceptible)
  MIC0 (complete inhibition): 0.25 µg/mL
Candida albicans; isolate ATCC 204276 (MICA-R)
  MIC0 (complete inhibition): 0.25 µg/mL
Candida albicans; isolate ATCC MYA-2732 (FLU-R, VORI-I)
  MIC0 (complete inhibition): 0.25 µg/mL
Candida albicans; isolate MMX 7053 (Susceptible)
  MIC0 (complete inhibition): 0.12 µg/mL
Candida albicans; isolate MMX 7067 (FLU-R, VORI-R)
  MIC0 (complete inhibition): 0.25 µg/mL
Candida albicans; isolate MMX 7403 (Susceptible)
  MIC0 (complete inhibition): 0.25 µg/mL
Candida albicans; isolate MMX 7424 (CASP-R, MICA-R)
  MIC0 (complete inhibition): 0.25 µg/mL
Candida albicans; isolate MMX 7430 (Susceptible)
  MIC0 (complete inhibition): 0.25 µg/mL
Candida albicans; isolate MMX 7437 (FLU-I)
  MIC0 (complete inhibition): 0.25 µg/mL
Candida albicans; isolate MMX 7445 (FLU-R, VORI-R)
  MIC0 (complete inhibition): 0.12 µg/mL
A. flavus; A. flavus ATCC 22546
  MIC0: 1 µg/mL
A. flavus; A. flavus ATCC 204304
  MIC0: 1 µg/mL
A. flavus; A. flavus MMX 7935
  MIC0: 1 µg/mL
Candida krusei; isolate ATCC 6258 (MICA-I)
  MIC0 (complete inhibition): 0.5 µg/mL
Candida krusei; isolate ATCC 14243 (Susceptible)
  MIC0 (complete inhibition): 0.25 µg/mL
Candida krusei; isolate ATCC 96685 (Susceptible)
  MIC0 (complete inhibition): 0.5 µg/mL
Candida krusei; isolate MMX 7125 (Susceptible)
  MIC0 (complete inhibition): 0.5 µg/mL
Candida krusei; isolate MMX 7128 (Susceptible)
  MIC0 (complete inhibition): 0.5 µg/mL
Candida krusei; isolate MMX 7141 (Susceptible)
  MIC0 (complete inhibition): 0.25 µg/mL
Candida krusei; isolate MMX 7153 (MICA-R)
  MIC0 (complete inhibition): 0.5 µg/mL
Candida krusei; isolate MMX 7155 (Susceptible)
  MIC0 (complete inhibition): 0.25 µg/mL
Candida krusei; isolate MMX 7563 (Susceptible)
  MIC0 (complete inhibition): 0.5 µg/mL
Candida krusei; isolate MMX 9878 (MICA-I, VORI-I)
  MIC0 (complete inhibition): 0.5 µg/mL
Candida glabrata; isolate ATCC 90030 (Susceptible)
  MIC0 (complete inhibition): 0.25 µg/mL
Candida glabrata; isolate ATCC MYA-2950 (Susceptible)
  MIC0 (complete inhibition): 0.12 µg/mL
Candida glabrata; isolate MMX 7087 (Susceptible)
  MIC0 (complete inhibition): 0.12 µg/mL
Candida glabrata; isolate MMX 7093 (FLU-R)
  MIC0 (complete inhibition): 0.25 µg/mL
Candida glabrata; isolate MMX 7101 (FLU-R)
  MIC0 (complete inhibition): 0.25 µg/mL
Candida glabrata; isolate MMX 7103 (CASP-R, MICA-R)
  MIC0 (complete inhibition): 0.25 µg/mL
Candida glabrata; isolate MMX 7111 (Susceptible)
  MIC0 (complete inhibition): 0.25 µg/mL
Candida glabrata; isolate MMX 7285 (CASP-R, MICA-R)
  MIC0 (complete inhibition): 0.25 µg/mL
Candida glabrata; isolate MMX 7307 (CASP-R, MICA-R, FLU-R)
  MIC0 (complete inhibition): 0.25 µg/mL
Candida glabrata; isolate MMX 7549 (Susceptible)
  MIC0 (complete inhibition): 0.25 µg/mL
A. niger
  MIC0: 0.25 µg/mL
A. terreus
  MIC0: 0.25 µg/mL
A. fumigatus; A. fumigatus ATCC 204305
  MIC0: 1 µg/mL
A. fumigatus; A. fumigatus ATCC MYA-3626
  MIC0: 1 µg/mL
A. fumigatus; A. fumigatus MMX 5934
  MIC0: 1 µg/mL
A. fumigatus; A. fumigatus MMX 5938
  MIC0: 1 µg/mL
A. fumigatus; A. fumigatus MMX 5939
  MIC0: 1 µg/mL
Candida auris; isolate MMX 9862 (Susceptible)
  MIC0 (complete inhibition): 0.25 µg/mL
Candida auris; isolate MMX 9863 (FLU-R, VORI-R)
  MIC0 (complete inhibition): 0.12 µg/mL
Candida auris; isolate MMX 9864 (FLU-R, VORI-R)
  MIC0 (complete inhibition): 0.25 µg/mL
Candida auris; isolate MMX 9865 (FLU-R, VORI-R)
  MIC0 (complete inhibition): 0.25 µg/mL
Candida auris; isolate MMX 9866 (FLU-R, VORI-R)
  MIC0 (complete inhibition): 0.5 µg/mL
Candida auris; isolate MMX 9867 (FLU-R, VORI-R)
  MIC0 (complete inhibition): 0.5 µg/mL
Candida auris; isolate MMX 9868 (FLU-R, VORI-R)
  MIC0 (complete inhibition): 0.25 µg/mL
Candida auris; isolate MMX 9869 (FLU-R, VORI-R)
  MIC0 (complete inhibition): 1 µg/mL
Candida auris; isolate MMX 9870 (FLU-R, VORI-R)
  MIC0 (complete inhibition): 1 µg/mL
Candida auris; isolate MMX 9871 (Susceptible)
  MIC0 (complete inhibition): 1 µg/mL
